Measured values published in patent US20230151003A1, “COMPOUNDS AND METHODS OF USE” (Exelixis, Inc., priority 2020, published 2023).

Key:
Mer = molecular target: T1, Mer (Homo sapiens, UniProt Q12866); assay: Mer autophosphorylation ELISA in transient transfected 293A cells; format: cell-based; conditions: Table 3 Cellular Activities; MERTK-transfected 293A cells, phospho-Mer ELISA
T1 construct: host or cells: 293A cells (Thermo Fisher #R70507)
T1 sequence (Q12866 21-999): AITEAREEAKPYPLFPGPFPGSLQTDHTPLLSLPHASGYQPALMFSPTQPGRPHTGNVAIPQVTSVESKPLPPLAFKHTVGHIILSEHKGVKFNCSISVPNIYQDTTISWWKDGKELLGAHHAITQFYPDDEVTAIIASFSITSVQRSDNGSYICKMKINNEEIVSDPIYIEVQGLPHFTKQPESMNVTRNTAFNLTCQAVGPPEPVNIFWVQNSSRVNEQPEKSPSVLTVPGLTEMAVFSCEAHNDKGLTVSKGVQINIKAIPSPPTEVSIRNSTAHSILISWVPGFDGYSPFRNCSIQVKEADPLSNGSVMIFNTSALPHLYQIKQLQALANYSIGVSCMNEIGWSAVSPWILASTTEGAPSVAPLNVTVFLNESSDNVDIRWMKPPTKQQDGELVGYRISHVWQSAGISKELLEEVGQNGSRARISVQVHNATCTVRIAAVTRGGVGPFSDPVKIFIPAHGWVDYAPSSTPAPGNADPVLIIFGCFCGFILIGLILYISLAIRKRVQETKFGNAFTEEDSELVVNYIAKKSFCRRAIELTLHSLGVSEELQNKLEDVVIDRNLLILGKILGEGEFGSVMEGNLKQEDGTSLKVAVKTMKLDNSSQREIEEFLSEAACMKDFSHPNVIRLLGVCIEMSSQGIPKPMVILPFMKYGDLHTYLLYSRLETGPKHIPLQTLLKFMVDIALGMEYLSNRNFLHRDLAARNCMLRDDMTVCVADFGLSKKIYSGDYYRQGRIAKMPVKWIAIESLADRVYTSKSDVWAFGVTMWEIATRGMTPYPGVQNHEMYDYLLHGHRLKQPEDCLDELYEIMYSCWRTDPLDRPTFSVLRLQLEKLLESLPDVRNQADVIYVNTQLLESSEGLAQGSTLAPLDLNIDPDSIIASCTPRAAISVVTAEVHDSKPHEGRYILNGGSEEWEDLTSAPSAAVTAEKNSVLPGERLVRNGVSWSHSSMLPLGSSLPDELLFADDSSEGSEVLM
Summary of the method: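 293A cells transiently transfected with human MERTK DNA, replated after 24 h, then treated 1 h with 8-point compound dilutions in serum-free medium (0.3% DMSO). Lysates assayed by phospho-Mer sandwich ELISA against phospho-Mer standard; DMSO = 100%, reference inhibitor = 0% activity; IC50 by 4-parameter logistic fit.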

KDR = KDR (Homo sapiens, UniProt P35968); assay: KDR autophosphorylation ELISA in HUVEC cells; format: cell-based; parameters: endogenous in cells; host or cells: HUVEC (Lonza #C2519A); conditions: Table 3 Cellular Activities, VEGF165-stimulated, phospho-KDR ELISA
Summary of the method: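 Inhibition of VEGF165-induced KDR phosphorylation was determined in serum-starved HUVEC after 1 h compound pretreatment and 5 min stimulation with 100 ng/mL VEGF165. Lysate phospho-KDR was measured by ELISA; IC50 values came from a 4-parameter logistic fit of 8-point curves.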

KDR, sequence (P35968 20-1356): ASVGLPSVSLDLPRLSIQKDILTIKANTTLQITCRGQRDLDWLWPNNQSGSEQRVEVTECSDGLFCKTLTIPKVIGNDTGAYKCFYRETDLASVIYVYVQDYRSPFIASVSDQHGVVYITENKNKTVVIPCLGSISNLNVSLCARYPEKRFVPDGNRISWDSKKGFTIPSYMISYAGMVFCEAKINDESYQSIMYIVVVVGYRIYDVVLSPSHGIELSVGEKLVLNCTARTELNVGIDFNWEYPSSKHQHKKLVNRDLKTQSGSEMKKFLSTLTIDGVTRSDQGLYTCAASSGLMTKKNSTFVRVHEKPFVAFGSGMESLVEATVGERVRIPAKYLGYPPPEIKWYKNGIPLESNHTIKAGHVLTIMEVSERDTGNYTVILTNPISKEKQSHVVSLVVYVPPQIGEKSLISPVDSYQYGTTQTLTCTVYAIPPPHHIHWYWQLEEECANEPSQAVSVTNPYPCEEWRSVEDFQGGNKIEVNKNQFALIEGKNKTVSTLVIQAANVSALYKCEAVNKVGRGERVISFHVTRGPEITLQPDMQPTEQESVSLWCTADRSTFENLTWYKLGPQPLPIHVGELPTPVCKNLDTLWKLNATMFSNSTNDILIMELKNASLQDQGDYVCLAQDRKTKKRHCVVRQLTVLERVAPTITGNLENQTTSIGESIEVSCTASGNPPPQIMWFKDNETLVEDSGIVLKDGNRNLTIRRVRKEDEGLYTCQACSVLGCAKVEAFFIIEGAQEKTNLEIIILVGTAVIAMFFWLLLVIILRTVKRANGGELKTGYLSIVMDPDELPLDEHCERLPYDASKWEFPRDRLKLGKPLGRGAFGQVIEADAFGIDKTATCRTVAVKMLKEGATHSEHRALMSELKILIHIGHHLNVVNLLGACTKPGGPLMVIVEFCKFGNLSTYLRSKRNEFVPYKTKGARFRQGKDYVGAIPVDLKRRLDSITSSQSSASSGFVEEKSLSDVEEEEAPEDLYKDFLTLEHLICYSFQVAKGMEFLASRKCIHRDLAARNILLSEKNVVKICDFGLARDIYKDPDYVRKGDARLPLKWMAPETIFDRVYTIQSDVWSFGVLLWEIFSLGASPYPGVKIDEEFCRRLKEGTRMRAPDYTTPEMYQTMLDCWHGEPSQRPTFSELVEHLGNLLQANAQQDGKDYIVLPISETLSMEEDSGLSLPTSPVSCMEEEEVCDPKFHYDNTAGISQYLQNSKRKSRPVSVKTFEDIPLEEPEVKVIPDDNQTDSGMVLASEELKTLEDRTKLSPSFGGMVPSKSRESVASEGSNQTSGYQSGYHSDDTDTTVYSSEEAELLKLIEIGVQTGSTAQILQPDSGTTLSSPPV

Row | IC50 (Mer) [nM] | IC50 (KDR) [nM] | Compound
1 | ≤ 100 | ≤ 100 | COc1cc2nccc(Oc3ccc(NC(=O)c4c(C)ncc(-c5cccnc5)c4O)cc3F)c2nc1OC [Compound 228, N-[4-[(6,7-Dimethoxy-1,5-naphthyridin-4-yl)oxy]-3-fluorophenyl]-4-hydroxy-2-methyl-5-pyridin-3-ylpyridine-3-carboxamide]
2 | ≤ 100 | 300 to 1000 | COc1cc2nccc(Oc3ccc(NC(=O)c4c5n(cc(-c6ccc(C)s6)c4=O)CCOC5)cc3)c2nc1OC [Compound 305, N-[4-[(6,7-Dimethoxy-1,5-naphthyridin-4-yl)oxy]phenyl]-7-(5-methylthiophen-2-yl)-8-oxo-3,4-dihydro-1H-pyrido[2,1-c][1,4]oxazine-9-carboxamide]
3 | ≤ 100 | ≤ 100 | COc1cnc2c(Oc3ccc(NC(=O)c4c(C)ncc(-c5ccccn5)c4O)cc3F)ccnc2c1 [Compound 70, N-[3-Fluoro-4-[(7-methoxy-1,5-naphthyridin-4-yl)oxy]phenyl]-4-hydroxy-2-methyl-5-pyridin-2-ylpyridine-3-carboxamide]
4 | ≤ 100 | ≤ 100 | COc1cc2nccc(Oc3ccc(NC(=O)c4ccc(C)n(-c5ccc(F)cn5)c4=O)cc3)c2nc1OC [Compound 44, N-[4-[(6,7-Dimethoxy-1,5-naphthyridin-4-yl)oxy]phenyl]-1-(5-fluoropyridin-2-yl)-6-methyl-2-oxopyridine-3-carboxamide]
5 | 100 to 300 | 300 to 1000 | COCCOc1cc2nccc(Oc3ccc(NC(=O)c4c(C)n(C)c(C)c(-c5cc6ccccc6o5)c4=O)cc3F)c2nc1OC [Compound 263, 5-(1-Benzofuran-2-yl)-N-[3-fluoro-4-[[6-methoxy-7-(2-methoxyethoxy)-1,5-naphthyridin-4-yl]oxy]phenyl]-1,2,6-trimethyl-4-oxopyridine-3-carboxamide]
6 | 100 to 300 | 300 to 1000 | COc1cc2nccc(Oc3ccc(NC(=O)c4c(C)n(C)c(C)c(-c5cc6ccccc6o5)c4=O)cc3F)c2nc1OC [Compound 261, 5-(1-Benzofuran-2-yl)-N-[4-[(6,7-dimethoxy-1,5-naphthyridin-4-yl)oxy]-3-fluorophenyl]-1,2,6-trimethyl-4-oxopyridine-3-carboxamide]
7 | ≤ 100 | 100 to 300 | COc1cc2nccc(Oc3ccc(NC(=O)c4c5n(c(C)c(-c6ccsc6)c4=O)CCOC5)cc3F)c2nc1OC [Compound 307, N-[4-[(6,7-Dimethoxy-1,5-naphthyridin-4-yl)oxy]-3-fluorophenyl]-6-methyl-8-oxo-7-thiophen-3-yl-3,4-dihydro-1H-pyrido[2,1-c][1,4]oxazine-9-carboxamide]
8 | ≤ 100 | 300 to 1000 | COc1cc2nccc(Oc3ccc(NC(=O)c4c5n(cc(-c6ccoc6)c4=O)CCOC5)cc3F)c2nc1OC [Compound 306, N-[4-[(6,7-Dimethoxy-1,5-naphthyridin-4-yl)oxy]-3-fluorophenyl]-7-(furan-3-yl)-8-oxo-3,4-dihydro-1H-pyrido[2,1-c][1,4]oxazine-9-carboxamide]
9 | ≤ 100 | ≤ 100 | COc1cc2nccc(Oc3ccc(NC(=O)c4cnc(C)c(-c5ccco5)c4O)cc3)c2cc1OC [Compound 258, N-[4-(6,7-Dimethoxyquinolin-4-yl)oxyphenyl]-5-(furan-2-yl)-4-hydroxy-6-methylpyridine-3-carboxamide]
10 | ≤ 100 | 300 to 1000 | COc1cc2nccc(Oc3ccc(NC(=O)c4c5n(cc(-c6cccs6)c4=O)CCOC5)cc3F)c2nc1OC [Compound 309, N-[4-[(6,7-Dimethoxy-1,5-naphthyridin-4-yl)oxy]-3-fluorophenyl]-8-oxo-7-thiophen-2-yl-3,4-dihydro-1H-pyrido[2,1-c][1,4]oxazine-9-carboxamide]
11 | ≤ 100 | 100 to 300 | COc1cc2nccc(Oc3ccc(NC(=O)c4nccn(-c5ccc(F)cn5)c4=O)cc3F)c2nc1OC [Compound 246, N-[4-[(6,7Dimethoxy-1,5-naphthyridin-4-yl)oxy]-3-fluorophenyl]-4-(5-fluoropyridin-2-yl)-3-oxopyrazine-2-carboxamide]
12 | ≤ 100 | 300 to 1000 | COc1cc2nccc(Oc3ccc(NC(=O)c4ccc(C)n(-c5ccnc(O)c5)c4=O)cc3F)c2nc1OC [Compound 232, N-[4-[(6,7-Dimethoxy-1,5-naphthyridin-4-yl)oxy]-3-fluorophenyl]-1-(2-hydroxypyridin-4-yl)-6-methyl-2-oxopyridine-3-carboxamide]
13 | ≤ 100 | 300 to 1000 | COc1cc2nccc(Oc3ccc(NC(=O)c4c(C)n(C)c(C)c(-c5coc6ccccc56)c4=O)cc3F)c2nc1OC [Compound 262, 5-(1-Benzofuran-3-yl)-N-[4-[(6,7-dimethoxy-1,5-naphthyridin-4-yl)oxy]-3-fluorophenyl]-1,2,6-trimethyl-4-oxopyridine-3-carboxamide]
14 | ≤ 100 | 300 to 1000 | COc1cc2nccc(Oc3ccc(NC(=O)c4c5n(cc(-c6ccoc6)c4=O)CCOC5)cc3)c2nc1OC [Compound 310, N-[4-[(6,7-Dimethoxy-1,5-naphthyridin-4-yl)oxy]phenyl]-7-(furan-3-yl)-8-oxo-3,4-dihydro-1H-pyrido[2,1-c][1,4]oxazine-9-carboxamide]
15 | ≤ 100 | 300 to 1000 | COc1cc2nccc(Oc3ccc(NC(=O)c4c5n(cc(-c6cc(C)cs6)c4=O)CCOC5)cc3)c2nc1OC [Compound 303, N-[4-[(6,7-Dimethoxy-1,5-naphthyridin-4-yl)oxy]phenyl]-7-(4-methylthiophen-2-yl)-8-oxo-3,4-dihydro-1H-pyrido[2,1-c][1,4]oxazine-9-carboxamide]
16 | ≤ 100 | ≤ 100 | COc1ccc2nccc(Oc3ccc(NC(=O)c4ccc(C)n(-c5ncc(F)cc5C)c4=O)cc3F)c2n1 [Compound 53, N-[3-Fluoro-4-[(6-methoxy-1,5-naphthyridin-4-yl)oxy]phenyl]-1-(5-fluoro-3-methylpyridin-2-yl)-6-methyl-2-oxopyridine-3-carboxamide]
17 | ≤ 100 | ≤ 100 | COc1cc2nccc(Oc3ccc(NC(=O)c4ncc(C)n(-c5ccc(F)cn5)c4=O)cc3F)c2nc1OC [Compound 219, N-[4-[(6,7-Dimethoxy-1,5-naphthyridin-4-yl)oxy]-3-fluorophenyl]-4-(5-fluoropyridin-2-yl)-5-methyl-3-oxopyrazine-2-carboxamide]
18 | ≤ 100 | 300 to 1000 | COc1cc2nccc(Oc3ccc(NC(=O)c4c5n(cc(-c6ccco6)c4=O)CCOC5)cc3F)c2nc1OC [Compound 297, N-[4-[(6,7-Dimethoxy-1,5-naphthyridin-4-yl)oxy]-3-fluorophenyl]-7-(furan-2-yl)-8-oxo-3,4-dihydro-1H-pyrido[2,1-c][1,4]oxazine-9-carboxamide]
19 | ≤ 100 | 300 to 1000 | COc1cc2nccc(Oc3ccc(NC(=O)c4cc(C(C)=O)c(C)n(-c5ccco5)c4=O)cc3F)c2nc1OC [Compound 236, 5-Acetyl-N-[4-[(6,7-dimethoxy-1,5-naphthyridin-4-yl)oxy]-3-fluorophenyl]-1-(furan-2-yl)-6-methyl-2-oxopyridine-3-carboxamide]
20 | ≤ 100 | ≤ 100 | COc1cnc2c(Oc3ccc(NC(=O)c4cnc(C)c(-c5cccs5)c4O)cc3)ccnc2c1 [Compound 257, 4-Hydroxy-N-[4-[(7-methoxy-1,5-naphthyridin-4-yl)oxy]phenyl]-6-methyl-5-thiophen-2-ylpyridine-3-carboxamide]
